PubChem BioAssay (NCI)
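Cultured in 96-well plates, cells were exposed to test compound for 48 hours across five concentrations. Here, GI50 denotes the concentration required for 50% inhibition of growth. TGI: concentration producing complete growth inhibition.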

Experiments:
Test in all cases: NCI-60 cell line screen, 48 h
U251 CNS = system: U251 CNS
A549 NSCLC = system: A549 NSCLC
MDA-MB-435 = system: MDA-MB-435
SF-268 CNS = system: SF-268 CNS
OVCAR-8 ovarian = system: OVCAR-8 ovarian
OVCAR-3 ovarian = system: OVCAR-3 ovarian
HCT-15 colon = system: HCT-15 colon
UO-31 renal = system: UO-31 renal
HCC-2998 colon = system: HCC-2998 colon
OVCAR-5 ovarian = system: OVCAR-5 ovarian
M14 melanoma = system: M14 melanoma
SNB-75 CNS = system: SNB-75 CNS
OVCAR-4 ovarian = system: OVCAR-4 ovarian
SK-MEL-28 melanoma = system: SK-MEL-28 melanoma
ACHN renal = system: ACHN renal
SK-MEL-5 melanoma = system: SK-MEL-5 melanoma
A498 renal = system: A498 renal
SN12C renal = system: SN12C renal
SK-MEL-2 melanoma = system: SK-MEL-2 melanoma
COLO 205 colon = system: COLO 205 colon
EKVX NSCLC = system: EKVX NSCLC
T-47D breast = system: T-47D breast
BT-549 breast = system: BT-549 breast
UACC-62 melanoma = system: UACC-62 melanoma
HOP-92 NSCLC = system: HOP-92 NSCLC
786-0 renal = system: 786-0 renal
CAKI-1 renal = system: CAKI-1 renal
MCF7 breast = system: MCF7 breast
HS 578T breast = system: HS 578T breast

COc1ccccc1N(C(C)=O)C1=C(Cl)C(=O)c2ccccc2C1=O
GI50 (U251 CNS): 2620 nM | TGI (U251 CNS): 11800 nM | GI50 (A549 NSCLC): 3430 nM | TGI (A549 NSCLC): 13500 nM | GI50 (MDA-MB-435): 1900 nM | TGI (MDA-MB-435): 4550 nM | GI50 (SF-268 CNS): 3190 nM | TGI (SF-268 CNS): 12500 nM | GI50 (OVCAR-8 ovarian): 2720 nM | TGI (OVCAR-8 ovarian): > 32200 nM | GI50 (OVCAR-3 ovarian): 1150 nM | TGI (OVCAR-3 ovarian): 2720 nM | GI50 (HCT-15 colon): 1040 nM | TGI (HCT-15 colon): 2610 nM | GI50 (UO-31 renal): 1030 nM | TGI (UO-31 renal): 2560 nM | GI50 (HCC-2998 colon): 2230 nM | TGI (HCC-2998 colon): 8610 nM | GI50 (OVCAR-5 ovarian): 2930 nM | TGI (OVCAR-5 ovarian): 11500 nM | GI50 (M14 melanoma): 1880 nM | TGI (M14 melanoma): 5910 nM | GI50 (SNB-75 CNS): 1720 nM | TGI (SNB-75 CNS): 7600 nM | GI50 (OVCAR-4 ovarian): 875 nM | TGI (OVCAR-4 ovarian): 2140 nM | GI50 (SK-MEL-28 melanoma): 2400 nM | TGI (SK-MEL-28 melanoma): 7030 nM | GI50 (ACHN renal): 1430 nM | TGI (ACHN renal): 2730 nM | GI50 (SK-MEL-5 melanoma): 1190 nM | TGI (SK-MEL-5 melanoma): 2630 nM | GI50 (A498 renal): 1540 nM | TGI (A498 renal): 7690 nM | GI50 (SN12C renal): 2830 nM | TGI (SN12C renal): 12100 nM | GI50 (SK-MEL-2 melanoma): 1890 nM | TGI (SK-MEL-2 melanoma): 4570 nM | GI50 (COLO 205 colon): 1510 nM | TGI (COLO 205 colon): 2840 nM | GI50 (EKVX NSCLC): 751 nM | TGI (EKVX NSCLC): 6950 nM | GI50 (T-47D breast): 382 nM | TGI (T-47D breast): 2950 nM | GI50 (BT-549 breast): 1890 nM | TGI (BT-549 breast): 8250 nM | GI50 (UACC-62 melanoma): 502 nM | TGI (UACC-62 melanoma): 2920 nM | GI50 (HOP-92 NSCLC): 304 nM | TGI (HOP-92 NSCLC): 1850 nM | GI50 (786-0 renal): 3150 nM | TGI (786-0 renal): 12000 nM | GI50 (CAKI-1 renal): 1450 nM | TGI (CAKI-1 renal): 3300 nM | GI50 (MCF7 breast): 2400 nM | TGI (MCF7 breast): 10500 nM | GI50 (HS 578T breast): 2700 nM | TGI (HS 578T breast): > 71900 nM
